Tests used:
Conditions in all cases: 72 h
[1] = system: Caco-2; experiment: cell viability relative to DMSO; higher = less toxic
[2] = system: Calu-3; experiment: as above
[3] = system: Vero E6; experiment: as above
[4] = system: U2OS; experiment: as above
[5] = system: HepG2; experiment: as above
[6] = system: Caco-2; experiment: drug sensitivity score (DSS) for viability; higher = more toxic; extreme values may be limits of the assay
[7] = system: Calu-3; experiment: as above
[8] = system: Vero E6; experiment: as above
[9] = system: U2OS; experiment: as above
[10] = system: HepG2; experiment: as above
[11] = system: Caco-2; experiment: relative viability EC50 (midpoint between 100% and the lowest measured viability); higher = less toxic
[12] = system: Calu-3; experiment: as above
[13] = system: U2OS; experiment: as above
[14] = system: HepG2; experiment: as above
[15] = system: Vero E6; experiment: as above

| Compound | cell viability ([1]; 1 nM) [%] | cell viability ([1]; 10 nM) [%] | cell viability ([1]; 100 nM) [%] | cell viability ([1]; 1000 nM) [%] | cell viability ([1]; 10000 nM) [%] | cell viability ([2]; 1 nM) [%] | cell viability ([2]; 10 nM) [%] | cell viability ([2]; 100 nM) [%] | cell viability ([2]; 1000 nM) [%] | cell viability ([2]; 10000 nM) [%] | cell viability ([3]; 1 nM) [%] | cell viability ([3]; 10 nM) [%] | cell viability ([3]; 100 nM) [%] | cell viability ([3]; 1000 nM) [%] | cell viability ([3]; 10000 nM) [%] | cell viability ([4]; 1 nM) [%] | cell viability ([4]; 10 nM) [%] | cell viability ([4]; 100 nM) [%] | cell viability ([4]; 1000 nM) [%] | cell viability ([4]; 10000 nM) [%] | cell viability ([5]; 1 nM) [%] | cell viability ([5]; 10 nM) [%] | cell viability ([5]; 100 nM) [%] | cell viability ([5]; 1000 nM) [%] | cell viability ([5]; 10000 nM) [%] | drug sensitivity score [6] | drug sensitivity score [7] | drug sensitivity score [8] | drug sensitivity score [9] | drug sensitivity score [10] | relative viability EC50 [11] [µM] | relative viability EC50 [12] [µM] | relative viability EC50 [13] [µM] | relative viability EC50 [14] [µM] | relative viability EC50 [15] [µM] |
| --- | --- | --- | --- | --- | --- | --- | --- | --- | --- | --- | --- | --- | --- | --- | --- | --- | --- | --- | --- | --- | --- | --- | --- | --- | --- | --- | --- | --- | --- | --- | --- | --- | --- | --- | --- |
| O=C1C(O)=C([C@H]2CC[C@H](c3ccc(Cl)cc3)CC2)C(=O)c2ccccc21 [atovaquone] | 94.6 | 103 | 104 | 102 | 95.9 | 102 | 107 | 92.2 | 102 | 108 | 95.2 | 101 | 101 | 99.2 | 66.3 | 96.8 | 98.3 | 96.5 | 96.4 | 92.8 | 99.4 | 90.2 | 94.8 | 98.9 | 107 | 0 | 0 | 1.7 | 0 | 0 | > 10 | > 10 | > 10 | > 10 | – |
| CCOC(=O)NNc1ccc(N(CC)CC(C)O)nn1 (configuration not stated) [cadralazine] | 110 | 97.4 | 100 | 102 | 102 | 104 | 96.3 | 91.6 | 88.1 | 101 | 105 | 100 | 94.8 | 100 | 95.2 | – | – | – | – | – | 95.6 | 103 | 97.9 | 96.6 | 106 | 0 | 0 | 0 | – | 0 | > 10 | > 10 | – | > 10 | > 10 |
| CCC(=O)c1ccc(OCC(O)CN2CCN(c3ccccc3)CC2)cc1 (configuration not stated) [centpropazine] | 96.8 | 92.8 | 94.6 | 93.1 | 98.4 | – | – | – | – | – | – | – | – | – | – | 100 | 103 | 99.3 | 106 | 97.3 | 120 | 112 | 106 | 101 | 90 | 0 | – | – | 0 | 0 | > 10 | – | > 10 | > 10 | – |
| O=C(C(c1ccccc1)c1ccccc1)N1CCN(CC(O)COc2cccc3ncccc23)CC1 (configuration not stated) [dofequidar] | 102 | 99.9 | 94.7 | 103 | 86.3 | 90.5 | 97.8 | 109 | 129 | 104 | – | – | – | – | – | 97.4 | 102 | 94.2 | 102 | 93.8 | 95.7 | 104 | 105 | 105 | 102 | 0.1 | 0 | – | 0 | 0 | > 10 | > 10 | > 10 | > 10 | – |
| CCOC(CN1CCN(CC(C)C(=O)c2ccccc2)CC1)c1ccccc1 (configuration not stated) [eprazinone] | 102 | 98.9 | 110 | 95.4 | 98.2 | 96 | 96.9 | 95.6 | 93 | 90.8 | – | – | – | – | – | 98.8 | 95.8 | 95.8 | 95.2 | 98.7 | 111 | 96.7 | 102 | 98.9 | 99.6 | 0 | 0 | – | 0 | 0 | > 10 | > 10 | > 10 | > 10 | – |
| O=C(/C=C/c1c(C(=O)O)[nH]c2cc(Cl)cc(Cl)c12)Nc1ccccc1 [gavestinel] | 102 | 104 | 91 | 99.6 | 104 | 90.4 | 98.8 | 89.3 | 99.2 | 107 | – | – | – | – | – | 101 | 99.2 | 100 | 101 | 100 | 94.5 | 112 | 92.9 | 105 | 101 | 0 | 0 | – | 0 | 0 | > 10 | > 10 | > 10 | > 10 | – |
| COC1=C2C[C@@H](C)C[C@H](OC)[C@H](O)[C@@H](C)/C=C(\C)[C@H](OC(N)=O)[C@@H](OC)/C=C\C=C(/C)C(=O)NC(=CC1=O)C2=O [geldanamycin] | 106 | 95.9 | 95.1 | 56.9 | 29.2 | 99 | 107 | 103 | 68 | 35.4 | 97.1 | 102 | 98 | 98.1 | 65.9 | 100 | 101 | 93.6 | 24.2 | 3 | 101 | 105 | 106 | 1.2 | 1 | 9.2 | 7.6 | 1.8 | 15 | 17.3 | 0.716 | 1.01 | 0.474 | 0.35 | – |
| O=C1Nc2ccccc2/C1=C1/Nc2ccccc2C1=O [indirubin] | 101 | 100 | 109 | 94.8 | 105 | 116 | 104 | 109 | 93.1 | 119 | 101 | 96.4 | 97.5 | 97.7 | 98.1 | – | – | – | – | – | 110 | 110 | 97.8 | 94 | 93.6 | 0 | 0 | 0 | – | 0 | > 10 | > 10 | – | > 10 | > 10 |
| C=C1c2cccc(O)c2C(=O)C2=C(O)[C@]3(O)C(=O)C(C(N)=O)=C(O)[C@@H](N(C)C)[C@@H]3[C@@H](O)[C@H]12 [methacycline] | 98.1 | 95.7 | 99.7 | 93.5 | 95.4 | 99.3 | 89.1 | 100 | 83 | 90.7 | 70.6 | 105 | 71.4 | 97.6 | 63.2 | 101 | 96.9 | 104 | 99.9 | 103 | 104 | 99.9 | 97.9 | 96.9 | 89.9 | 0 | 0.3 | 5.8 | 0 | 0 | > 10 | > 10 | > 10 | > 10 | – |
| O=C(O)C[CH2][Ge](=[O])[O][Ge](=[O])[CH2]CC(=O)O [propagermanium] | 108 | 91.4 | 106 | 93.4 | 100 | 102 | 105 | 95.6 | 99.2 | 105 | – | – | – | – | – | 101 | 101 | 99.1 | 97.1 | 97.5 | 104 | 106 | 95.3 | 96.8 | 88 | 0 | 0 | – | 0 | 0 | > 10 | > 10 | > 10 | > 10 | – |
| O=c1ccc2cc3ccoc3cc2o1 [psoralen] | 96.6 | 104 | 101 | 104 | 97.9 | – | – | – | – | – | – | – | – | – | – | 101 | 104 | 97.8 | 102 | 98.9 | 110 | 107 | 110 | 96.5 | 105 | 0 | – | – | 0 | 0 | > 10 | – | > 10 | > 10 | – |
| c1nc2c(NC3CCCCC3)nc(Nc3ccc(N4CCOCC4)cc3)nc2[nH]1 [reversine] | 99.3 | 93.6 | 97.8 | 84.1 | 35.2 | 102 | 92.4 | 103 | 100 | 73.4 | 104 | 98.1 | 103 | 65.1 | 58 | 99.9 | 102 | 99.4 | 63.6 | 23.1 | 101 | 89.9 | 89.2 | 46.3 | 27.6 | 6 | 1 | 6.3 | 8.9 | 11.5 | 1.57 | – | 1.04 | 0.401 | – |
| COc1cnc(NS(=O)(=O)c2ccc(N)cc2)nc1 [sulfameter] | 106 | 103 | 92.7 | 103 | 98.8 | 97.2 | 96.4 | 99.3 | 101 | 105 | – | – | – | – | – | 96.2 | 101 | 94.3 | 101 | 97.2 | 102 | 110 | 97 | 99.6 | 106 | 0 | 0 | – | 0 | 0 | > 10 | > 10 | > 10 | > 10 | – |
| CCCSc1nc(N[C@@H]2C[C@H]2c2ccc(F)c(F)c2)c2nnn([C@@H]3C[C@H](OCCO)[C@@H](O)[C@H]3O)c2n1 [ticagrelor] | 98.1 | 99.5 | 98 | 97.1 | 86.5 | 99.9 | 99.6 | 101 | 103 | 104 | – | – | – | – | – | 104 | 96.3 | 101 | 103 | 96.3 | 107 | 112 | 95.9 | 99.1 | 89.5 | 0.3 | 0 | – | 0 | 0 | > 10 | > 10 | > 10 | > 10 | – |
| CC(C)C[C@@H](C(=O)N[C@H](C(=O)OC1CCCC1)c1ccccc1)[C@H](O)C(=O)NO [tosedostat] | 90 | 105 | 93.6 | 88.6 | 84.1 | 96.2 | 101 | 74.6 | 69.7 | 59.8 | 99.7 | 99.1 | 104 | 102 | 106 | 97.7 | 103 | 96.3 | 98.3 | 70.9 | 105 | 87.8 | 88.5 | 80.1 | 66.7 | 1.1 | 8.9 | 0 | 1.5 | 4.6 | > 10 | – | – | – | > 10 |
| Nc1nc(N)c2nc(-c3ccccc3)c(N)nc2n1 [triamterene] | 104 | 120 | 97.8 | 106 | 98.8 | 103 | 101 | 93.6 | 97.9 | 102 | 97.9 | 98.2 | 101 | 98.6 | 70.4 | 102 | 101 | 106 | 108 | 97.8 | 97.9 | 83.3 | 85.9 | 88.7 | 88.1 | 0 | 0 | 1.5 | 0 | 5.2 | > 10 | > 10 | > 10 | > 10 | – |

Source: the supplement of paper PMC13380429
